Source: patent US7291625B2, “Use of a vitamin combination for the treatment of pruritus and non-infective disorders involving itching and/or inflammation” (priority 1999, dated 2007)
Like-named read-outs stand apart in the source and are kept apart here.

How the values were obtained:
[1] = tested on: uremic pruritus and sine materia pruritus forms; experiment: Clinical experimentation: systemic niacin or niacinamide alone at pellagra dosage in pruritus forms; conditions: for effectiveness in combating the pruritus forms: systemic administration alone at pellagra dosage, uremic and sine materia pruritus
[2] = tested on: senile pruritus; experiment: Clinical case reports: senile pruritus; assay type: in vivo, human
Text: (§1) It is advisable to take the medicament by the oral route, after the main meals, with abundant water (at least half a glass). In the event that the treatment is discontinued and the symptoms revert, it is necessary to start again from the 1st phase.
3rd case— subject with senile pruritus—The patient had been complaining for about 3 years of a diffused itching, which had become increasingly intense. At first, they consulted their physician, who addressed them to a dermatologist.
The patient was then treated by oral administration of 50 mg of nicotinamide+2.5 mg of riboflavin twice daily. […] Thereafter, the therapy was reduced to half the dosage, for 15 days a month.
4th case— subject with senile pruritus—The patient had been suffering for about 2 years and a half from a diffused continuous itching at the torso and on the upper and lower limbs.
The treatment was continued with half the dose for further 15 days and then it was finally discontinued.
The treatment with half the dose was continued for 15 days, and then it was discontinued.
3rd case— subject with senile pruritus—The patient had been suffering for about one year from a diffused itching. […] Thereafter, the diagnosis of senile itching was made.

[3] = tested on: uremic pruritus; experiment: Clinical case reports: uremic pruritus (renal dialysis, chronic renal failure or insufficiency); assay type: in vivo, human
Method: In the treatment of uremic subjects who currently undergo dialysis the protocol is the same as for the 1st phase above, but the continuation of the treatment with half the dose will take place starting after each dialysis treatment (also in this case, after the meal and with abundant water).
Thereafter, the patient was treated with 50 mg of nicotinamide+2.5 mg of riboflavin twice daily, by oral administration. […] The patient continued the same therapy for about 15 days, and thereafter the dosage was reduced to one-half, the administration occurring after the dialysis treatment. […]
Lastly, they underwent an additional 3 hours dialysis treatment each week, with carbon filter, for four weeks on end.
The treatment was started with 50 mg of nicotinamide twice daily, to be taken orally after the main meals. […] The patient continued to take 50 mg of nicotinamide after dinner for 15 more days, and then they took 50 mg of the same agent only on the day of the dialytic treatment. […]

[4] = systemic, 2 to 6 g per day, therapy of hyperlipidemia; cited from earlier work
[5] = tested on: anal and vulvar pruritus; experiment: Clinical case reports: anal and vulvar pruritus; assay type: in vivo, human
Text: as §1
As a first attempt, a gastroenterologist had been consulted for the anal itching, and thereafter a gynaecologist had been consulted for the vulvar itching.
The treatment was continued for 12 more days, and then it was reduced to half the dosage, for 15 days a month.
Then, the patient was given a therapy with 50 mg of nicotinamide twice daily, by oral administration, after the main meals. […] The patient continued to take 50 mg of nicotinamide daily, after dinner, for 15 days, and then they discontinued the treatment.
The treatment was then continued for 15 more days, with half the dosage, and then finally discontinued.

[6] = tested on: uremic pruritus and sine materia pruritus forms; conditions: human, in vivo

Structure (SMILES): NC(=O)c1cccnc1 [nicotinamide]
- effectiveness in combating the pruritus forms [1]: not appreciably effective
- side effects of flushing and itching ([1]; systemic administration alone at the dosage used for prevention and therapy of pellagra): does not lead to the undesired side effects of flushing and itching
- pruritus after 40 days ([2]; series 2 case 4: senile pruritus, 50 mg nicotinamide alone twice daily oral): pruritus was quite mild
- itching about 10 days after discontinuation ([2]; series 2 case 4, nicotinamide alone): itching had started again to increase
- itching after 45 days ([2]; series 3 case 3: senile pruritus, 50 mg nicotinamide alone twice daily oral): itching had only slightly decreased
- itching at subsequent monthly checks ([2]; series 3 case 3, nicotinamide therapy continued): diffused moderate itching
- pruritus after one month and a half ([3]; series 2 case 1: person on renal dialysis, 50 mg nicotinamide alone twice daily oral): pruritus had sensibly decreased
- itching at check-up after one month ([3]; series 2 case 1, nicotinamide alone, reduced to 50 mg on dialysis days): still complained of some moderate itching
- symptom after 45 days ([3]; series 2 case 2: person on renal dialysis, 50 mg nicotinamide alone twice daily oral): appreciable reduction of the symptom
- itching 15 days after discontinuation ([3]; series 2 case 2, nicotinamide alone): itching had started again to gradually increase
- itching after 35 days ([3]; series 2 case 5: chronic renal insufficiency, 50 mg nicotinamide alone twice daily oral): some moderate itching
- itching about 10 days after discontinuation ([3]; series 2 case 5, nicotinamide alone): itching had started to increase again
- itching after 65 days ([3]; series 3 case 1: person on renal dialysis three times weekly, 50 mg nicotinamide alone twice daily oral): itching had only become milder without disappearing
- pruritus at check-ups every 2 months ([3]; series 3 case 1, 50 mg nicotinamide after each dialysis treatment): persistent pruritus of a reduced intensity
- itching after 50 days ([3]; series 3 case 2: renal insufficiency, 50 mg nicotinamide alone twice daily oral): itching had become milder, without totally disappearing
- itching at subsequent periodical checks ([3]; series 3 case 2, continued 50 mg/day nicotinamide): moderate itching diffused on the whole body
- adverse side effects at large doses [4]: adverse side effects, including gastrointestinal disturbances (such as abdominal pain and nausea) hepatotoxicity, and, above all, flushing
- itching after 60 days ([5]; series 2 case 3: anal vulvar pruritus, 50 mg nicotinamide alone twice daily oral): itching was moderate
- itching 15 days after discontinuation ([5]; series 2 case 3, nicotinamide alone): itching started to increase again
- symptoms after 2 months ([5]; series 3 case 4: anal and vulvar pruritus, 50 mg nicotinamide alone twice daily oral): a decrease of the symptoms was detected
- itching at subsequent monthly checks ([5]; series 3 case 4, still taking 50 mg/day nicotinamide): still complained of a moderate itching

Structure (SMILES): O=C(O)c1cccnc1 [niacin, 3-pyridinecarboxylic acid]
- effectiveness in combating the pruritus forms [1]: not appreciably effective
- side effects of flushing and itching [6]: does not lead to the undesired side effects of flushing and itching
- adverse side effects at large doses [4]: adverse side effects, including gastrointestinal disturbances (such as abdominal pain and nausea) hepatotoxicity, and, above all, flushing
